Assay in all cases: TR-FRET enzymatic activity assay against PI3K isoforms
Common to all, as to type: biochemical
A general note: Time-resolved FRET reads energy transfer from a long-lived donor to a nearby acceptor.

For test [1], the target named is PI3Kβ (Homo sapiens (Human), UniProt P42338). The following applies: PI3Kβ, TR-FRET, 2×Km ATP, 30 minutes at 25° C. From the text:
(§1) The compounds of formula (I) were characterized for their enzymatic activity against the PI3K isoforms. […] TR-FRET monitored the formation of 3,4,5-inositol triphosphate molecule that competed with fluorescently labeled PIP3 for binding to the GRP-1 pleckstrin homology domain protein.

In test [2] the target is PI3Kδ (Homo sapiens (Human), UniProt O00329). The note with it: 2×Km ATP, 30 minutes at 25° C.
Sequence of PI3Kδ (O00329 whole entry): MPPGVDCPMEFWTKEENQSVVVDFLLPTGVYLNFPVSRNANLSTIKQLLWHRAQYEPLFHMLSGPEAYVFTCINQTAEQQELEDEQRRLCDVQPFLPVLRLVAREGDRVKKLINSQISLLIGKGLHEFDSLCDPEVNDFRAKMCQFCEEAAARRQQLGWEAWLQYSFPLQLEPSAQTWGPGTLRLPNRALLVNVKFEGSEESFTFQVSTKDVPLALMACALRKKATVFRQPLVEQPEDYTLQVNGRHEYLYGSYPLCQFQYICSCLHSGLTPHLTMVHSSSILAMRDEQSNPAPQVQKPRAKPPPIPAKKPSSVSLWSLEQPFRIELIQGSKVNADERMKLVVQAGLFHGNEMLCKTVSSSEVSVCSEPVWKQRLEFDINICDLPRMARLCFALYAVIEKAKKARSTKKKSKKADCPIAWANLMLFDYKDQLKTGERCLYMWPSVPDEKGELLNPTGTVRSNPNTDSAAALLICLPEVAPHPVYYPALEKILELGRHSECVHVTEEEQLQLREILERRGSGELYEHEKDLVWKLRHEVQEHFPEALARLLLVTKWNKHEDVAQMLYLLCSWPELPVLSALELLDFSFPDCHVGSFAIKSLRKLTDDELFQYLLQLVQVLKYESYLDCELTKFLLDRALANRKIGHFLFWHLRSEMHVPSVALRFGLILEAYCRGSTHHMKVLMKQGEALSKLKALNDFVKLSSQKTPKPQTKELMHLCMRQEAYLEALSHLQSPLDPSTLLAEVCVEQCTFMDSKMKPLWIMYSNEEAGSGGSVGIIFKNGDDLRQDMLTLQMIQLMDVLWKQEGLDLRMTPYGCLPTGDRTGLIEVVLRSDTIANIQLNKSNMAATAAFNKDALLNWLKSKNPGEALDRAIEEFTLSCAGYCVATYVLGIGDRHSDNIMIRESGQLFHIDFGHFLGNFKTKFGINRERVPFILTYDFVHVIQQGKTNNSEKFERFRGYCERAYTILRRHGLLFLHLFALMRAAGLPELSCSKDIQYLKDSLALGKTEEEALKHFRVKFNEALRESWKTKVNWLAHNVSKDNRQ
Sequence of PI3Kδ (P27986 whole entry partner): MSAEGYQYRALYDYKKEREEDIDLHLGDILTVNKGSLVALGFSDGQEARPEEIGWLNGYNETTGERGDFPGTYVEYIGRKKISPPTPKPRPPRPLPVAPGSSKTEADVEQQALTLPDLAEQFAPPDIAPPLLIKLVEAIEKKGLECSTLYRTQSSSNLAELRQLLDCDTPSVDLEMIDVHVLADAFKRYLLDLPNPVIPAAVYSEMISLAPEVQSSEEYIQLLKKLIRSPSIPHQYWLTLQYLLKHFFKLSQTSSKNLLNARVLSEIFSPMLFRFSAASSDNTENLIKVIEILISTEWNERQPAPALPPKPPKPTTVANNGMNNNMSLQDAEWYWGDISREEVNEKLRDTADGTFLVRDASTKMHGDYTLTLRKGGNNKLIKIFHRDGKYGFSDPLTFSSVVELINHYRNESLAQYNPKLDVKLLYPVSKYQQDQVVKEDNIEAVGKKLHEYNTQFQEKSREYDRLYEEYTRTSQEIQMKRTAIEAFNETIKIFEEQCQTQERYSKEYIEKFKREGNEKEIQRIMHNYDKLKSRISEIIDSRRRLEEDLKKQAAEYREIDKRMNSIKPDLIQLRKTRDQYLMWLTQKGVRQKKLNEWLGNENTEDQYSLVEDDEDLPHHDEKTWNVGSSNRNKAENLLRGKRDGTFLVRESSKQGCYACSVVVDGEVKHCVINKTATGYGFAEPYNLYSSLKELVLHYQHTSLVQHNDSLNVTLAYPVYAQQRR
Description: as §1

The target of test [3] is PI3Kγ (Homo sapiens (Human), UniProt P48736). The following applies: 2×Km ATP, 30 minutes at 25° C.
Sequence of PI3Kγ (P48736 whole entry): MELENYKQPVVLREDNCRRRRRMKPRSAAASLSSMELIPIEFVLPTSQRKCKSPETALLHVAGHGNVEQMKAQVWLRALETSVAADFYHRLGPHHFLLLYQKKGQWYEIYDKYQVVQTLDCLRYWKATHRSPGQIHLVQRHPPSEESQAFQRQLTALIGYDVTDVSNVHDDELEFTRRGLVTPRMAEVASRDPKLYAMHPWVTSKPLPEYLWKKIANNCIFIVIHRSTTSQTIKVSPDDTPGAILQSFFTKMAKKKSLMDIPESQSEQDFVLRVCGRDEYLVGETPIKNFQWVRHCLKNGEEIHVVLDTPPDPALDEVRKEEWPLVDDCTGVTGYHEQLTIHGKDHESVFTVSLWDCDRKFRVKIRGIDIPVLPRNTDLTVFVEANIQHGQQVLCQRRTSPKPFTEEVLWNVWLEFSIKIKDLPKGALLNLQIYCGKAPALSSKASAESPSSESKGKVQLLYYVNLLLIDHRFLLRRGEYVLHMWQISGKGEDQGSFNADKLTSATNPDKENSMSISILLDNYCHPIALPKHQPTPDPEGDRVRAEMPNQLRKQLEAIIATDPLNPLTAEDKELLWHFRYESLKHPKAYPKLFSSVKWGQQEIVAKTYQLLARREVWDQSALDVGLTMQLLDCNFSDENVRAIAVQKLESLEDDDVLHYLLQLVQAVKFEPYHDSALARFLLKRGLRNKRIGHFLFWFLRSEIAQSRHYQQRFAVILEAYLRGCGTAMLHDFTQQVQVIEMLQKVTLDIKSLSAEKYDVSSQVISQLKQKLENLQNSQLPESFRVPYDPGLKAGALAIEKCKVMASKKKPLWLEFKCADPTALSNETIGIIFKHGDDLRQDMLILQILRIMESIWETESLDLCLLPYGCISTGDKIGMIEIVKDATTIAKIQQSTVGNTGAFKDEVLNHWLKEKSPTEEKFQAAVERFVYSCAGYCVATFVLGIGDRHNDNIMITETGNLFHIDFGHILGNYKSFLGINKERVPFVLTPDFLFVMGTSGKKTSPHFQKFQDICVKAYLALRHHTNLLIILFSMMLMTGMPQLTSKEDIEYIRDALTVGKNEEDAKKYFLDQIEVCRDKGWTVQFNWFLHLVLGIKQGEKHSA
Description: as §1

Consider 22 compounds from US11021467B2, “Phosphatidylinositol 3-kinase inhibitors” (Gilead Sciences, Inc., priority 2014, dated 2021).

pIC50: −log10 of the molar value.

Sequence of PI3Kβ (P42338 whole entry, the tested form may be a part, canonical isoform): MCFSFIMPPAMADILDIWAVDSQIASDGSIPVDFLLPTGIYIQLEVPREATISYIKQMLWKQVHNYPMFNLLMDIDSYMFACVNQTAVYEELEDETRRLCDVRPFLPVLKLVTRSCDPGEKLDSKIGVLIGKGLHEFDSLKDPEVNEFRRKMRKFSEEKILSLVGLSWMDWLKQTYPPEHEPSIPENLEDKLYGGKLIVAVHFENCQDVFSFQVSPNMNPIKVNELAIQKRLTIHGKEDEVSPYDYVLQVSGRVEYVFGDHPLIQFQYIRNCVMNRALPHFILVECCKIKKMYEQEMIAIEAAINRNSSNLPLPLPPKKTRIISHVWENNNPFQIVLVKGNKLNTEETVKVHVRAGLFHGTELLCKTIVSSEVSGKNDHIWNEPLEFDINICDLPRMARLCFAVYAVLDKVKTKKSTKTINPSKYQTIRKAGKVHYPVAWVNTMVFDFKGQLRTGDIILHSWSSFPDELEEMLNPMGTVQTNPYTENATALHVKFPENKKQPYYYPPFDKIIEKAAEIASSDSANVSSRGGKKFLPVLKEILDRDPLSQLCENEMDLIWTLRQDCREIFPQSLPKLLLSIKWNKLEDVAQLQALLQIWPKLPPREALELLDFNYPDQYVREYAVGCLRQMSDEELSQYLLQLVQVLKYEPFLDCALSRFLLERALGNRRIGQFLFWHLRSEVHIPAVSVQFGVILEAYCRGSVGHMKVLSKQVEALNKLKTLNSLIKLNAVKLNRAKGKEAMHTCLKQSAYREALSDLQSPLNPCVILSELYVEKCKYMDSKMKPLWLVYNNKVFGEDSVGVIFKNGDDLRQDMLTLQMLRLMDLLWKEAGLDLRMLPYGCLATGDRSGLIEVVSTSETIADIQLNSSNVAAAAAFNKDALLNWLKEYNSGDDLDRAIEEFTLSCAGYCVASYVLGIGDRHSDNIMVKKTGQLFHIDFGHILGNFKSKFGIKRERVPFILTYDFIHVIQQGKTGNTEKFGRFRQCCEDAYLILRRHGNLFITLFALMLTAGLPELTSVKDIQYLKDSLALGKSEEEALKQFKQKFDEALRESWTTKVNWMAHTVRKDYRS
Sequence of PI3Kβ (P27986 whole entry partner, the tested form may be a part, canonical isoform): as the sequence (P27986 whole entry partner) above

`C[C@H](Nc1ncnc(N)c1C#N)c1nc2cccc(Cl)c2c(=O)n1CC1CCCCN1` (stereo partly drawn) [Compound 91, 4-amino-6-(((1S)-1-(5-chloro-4-oxo-3-(piperidin-2-ylmethyl)-3,4-dihydroquinazolin-2-yl)ethyl)amino)pyrimidine-5-carbonitrile]: the pIC50 in test [1] was 5.77; in test [2], 7.02; in test [3] it was not above 5.00.
On the same counts, the results for `C[C@H](Nc1ncnc(N)c1C#N)c1nc2cccc(Cl)c2c(=O)n1CC1CCCNC1` (stereo partly drawn) [Compound 92, 4-amino-6-(((1S)-1-(5-chloro-4-oxo-3-(piperidin-3-ylmethyl)-3,4-dihydroquinazolin-2-yl)ethyl)amino)pyrimidine-5-carbonitrile] are 6.49, 8.15 and not above 5.00.
Regarding `C[C@H](Nc1nc(N)nc(N)c1C#N)c1nc2cccc(Cl)c2c(=O)n1[C@H]1C[C@@H](O)C1` [Compound 93, 2,4-diamino-6-(((S)-1-(5-chloro-3-((cis)-3-hydroxycyclobutyl)-4-oxo-3,4-dihydroquinazolin-2-yl)ethyl)amino)pyrimidine-5-carbonitrile], the results for the pIC50 in test [1], in test [2] and in test [3] were 8.40, 9.00 and 6.80, respectively.
Take `C[C@H](Nc1nc(N)nc(N)c1Cl)c1nc2cccc(Cl)c2c(=O)n1[C@H]1C[C@@H](O)C1` [Compound 94, 5-chloro-2-((S)-1-((2,6-diamino-5-chloropyrimidin-4-yl)amino)ethyl)-3-((cis)-3-hydroxycyclobutyl)quinazolin-4(3H)-one]: the pIC50 in test [1] is 6.72; in test [2] it was 7.85; in test [3], 5.80.
In the case of `Nc1nc(N)c(Cl)c(N[C@H](c2nc3c(Cl)ccc(Cl)c3c(=O)n2[C@H]2C[C@@H](O)C2)C2CC2)n1` [Compound 95, 5,8-dichloro-2-((S)-cyclopropyl((2,6-diamino-5-chloropyrimidin-4-yl)amino)methyl)-3-((cis)-3-hydroxycyclobutyl)quinazolin-4(3H)-one], the pIC50 in test [1] is 6.14; in test [2] it was 7.80; in test [3], not above 5.00.
On the same counts, the results for `N#Cc1c(N)nc(N)nc1N[C@H](c1nc2c(Cl)ccc(Cl)c2c(=O)n1[C@H]1C[C@@H](O)C1)C1CC1` [Compound 96, 2,4-diamino-6-(((S)-cyclopropyl(5,8-dichloro-3-((cis)-3-hydroxycyclobutyl)-4-oxo-3,4-dihydroquinazolin-2-yl)methyl)amino)pyrimidine-5-carbonitrile] are 8.00, 8.70 and 6.02.
On the same counts, the results for `N#Cc1c(N)nc(N)nc1N[C@H](c1nc2c(Cl)cc(F)cc2c(=O)n1[C@H]1C[C@H](O)C1)C1CC1` [Compound 97, 2,4-diamino-6-(((S)-(8-chloro-6-fluoro-3-((trans)-3-hydroxycyclobutyl)-4-oxo-3,4-dihydroquinazolin-2-yl)(cyclopropyl)methyl)amino)pyrimidine-5-carbonitrile] are 7.24, 8.10 and 5.55.
Take `C[C@H](Nc1nc(N)nc(N)c1C#N)c1nc2c(Cl)cc(F)cc2c(=O)n1[C@H]1C[C@H](O)C1` [Compound 98, 2,4-diamino-6-(((S)-1-(8-chloro-6-fluoro-3-((trans)-3-hydroxycyclobutyl)-4-oxo-3,4-dihydroquinazolin-2-yl)ethyl)amino)pyrimidine-5-carbonitrile]: the values for the negative-log IC50 (pIC50) in test [1], in test [2] and in test [3] were 6.48, 7.70 and 5.49, respectively.
In the same order, the values of `C[C@H](Nc1nc(N)nc(N)c1C#N)c1nc2c(Cl)cc(F)cc2c(=O)n1[C@H]1C[C@@H](O)C1` [Compound 99, 2,4-diamino-6-(((S)-1-(8-chloro-6-fluoro-3-((cis)-3-hydroxycyclobutyl)-4-oxo-3,4-dihydroquinazolin-2-yl)ethyl)amino)pyrimidine-5-carbonitrile] are 6.54, 8.05 and 5.62.
In the same order, the values of `N#Cc1c(N)nc(N)nc1N[C@H](c1nc2c(Cl)ccc(Cl)c2c(=O)n1[C@H]1C[C@H](O)C1)C1CC1` [Compound 100, 2,4-diamino-6-(((S)-cyclopropyl(5,8-dichloro-3-((trans)-3-hydroxycyclobutyl)-4-oxo-3,4-dihydroquinazolin-2-yl)methyl)amino)pyrimidine-5-carbonitrile] are 7.36, 8.52 and 5.54.
With `C[C@H](Nc1nc(N)nc(N)c1C#N)c1nc2c(Cl)ccc(Cl)c2c(=O)n1[C@H]1C[C@H](O)C1` [Compound 101, 2,4-diamino-6-(((S)-1-(5,8-dichloro-3-((trans)-3-hydroxycyclobutyl)-4-oxo-3,4-dihydroquinazolin-2-yl)ethyl)amino)pyrimidine-5-carbonitrile], the pIC50 in test [1] was 6.85; in test [2], 7.92; in test [3], 5.49.
As to `N#Cc1c(N)nc(N)nc1N[C@H](c1nc2c(Cl)cc(F)cc2c(=O)n1[C@H]1C[C@@H](O)C1)C1CC1` [Compound 102, 2,4-diamino-6-(((S)-(8-chloro-6-fluoro-3-((cis)-3-hydroxycyclobutyl)-4-oxo-3,4-dihydroquinazolin-2-yl)(cyclopropyl)methyl)amino)pyrimidine-5-carbonitrile], the pIC50 was 7.18 in test [1], 8.70 in test [2] and 5.96 in test [3].
On the same counts, the results for `C[C@H](Nc1nc(N)nc(N)c1C#N)c1nc2c(Cl)ccc(Cl)c2c(=O)n1[C@H]1C[C@@H](O)C1` [Compound 103, 2,4-diamino-6-(((S)-1-(5,8-dichloro-3-((cis)-3-hydroxycyclobutyl)-4-oxo-3,4-dihydroquinazolin-2-yl)ethyl)amino)pyrimidine-5-carbonitrile] are 7.68, 8.30 and 5.59.
On the same counts, the results for `C[C@H](Nc1nc(N)nc(N)c1C#N)c1nc2cccc(Cl)c2c(=O)n1CCC#N` [Compound 104, (S)-2,4-diamino-6-((1-(5-chloro-3-(2-cyanoethyl)-4-oxo-3,4-dihydroquinazolin-2-yl)ethyl)amino)pyrimidine-5-carbonitrile] are 7.24, 8.05 and 7.11.
With `COCCCn1c([C@H](C)Nc2ncnc(N)c2C#N)nc2cccc(Cl)c2c1=O` [Compound 105, (S)-4-amino-6-((1-(5-chloro-3-(3-methoxypropyl)-4-oxo-3,4-dihydroquinazolin-2-yl)ethyl)amino)pyrimidine-5-carbonitrile], the pIC50 was 6.09 in test [1], 8.05 in test [2] and 5.08 in test [3].
On the same counts, the results for `COCCCn1c([C@H](C)Nc2ncnc(N)c2C#N)nc2c(Cl)ccc(Cl)c2c1=O` [Compound 106, (S)-4-amino-6-((1-(5,8-dichloro-3-(3-methoxypropyl)-4-oxo-3,4-dihydroquinazolin-2-yl)ethyl)amino)pyrimidine-5-carbonitrile] are 6.23, 8.10 and less than 5.00.
In the same order, the values of `COCCCn1c([C@H](C)Nc2nc(N)nc(N)c2C#N)nc2c(Cl)ccc(Cl)c2c1=O` [Compound 107, (S)-2,4-diamino-6-((1-(5,8-dichloro-3-(3-methoxypropyl)-4-oxo-3,4-dihydroquinazolin-2-yl)ethyl)amino)pyrimidine-5-carbonitrile] are 7.09, 8.52 and 5.77.
On the same counts, the results for `COCCCn1c([C@H](C)Nc2ncnc(N)c2C#N)nc2c(F)ccc(F)c2c1=O` [Compound 108, (S)-4-amino-6-((1-(5,8-difluoro-3-(3-methoxypropyl)-4-oxo-3,4-dihydroquinazolin-2-yl)ethyl)amino)pyrimidine-5-carbonitrile] are 5.70, 7.41 and not above 5.00.
On to `COCCCn1c([C@H](C)Nc2nc(N)nc(N)c2C#N)nc2c(F)ccc(F)c2c1=O` [Compound 109, (S)-2,4-diamino-6-((1-(5,8-difluoro-3-(3-methoxypropyl)-4-oxo-3,4-dihydroquinazolin-2-yl)ethyl)amino)pyrimidine-5-carbonitrile], for which the pIC50 was 6.28 in test [1], 7.85 in test [2] and 5.66 in test [3].
In the same order, the values of `C[C@H](Nc1nc(N)nc(N)c1C#N)c1nc2cccc(Cl)c2c(=O)n1CCCC#N` [Compound 110, (S)-2,4-diamino-6-((1-(5-chloro-3-(3-cyanopropyl)-4-oxo-3,4-dihydroquinazolin-2-yl)ethyl)amino)pyrimidine-5-carbonitrile] are 7.38, 8.40 and 6.74.
In the same order, the values of `C[C@H](Nc1nc(N)nc(N)c1C#N)c1nc2cccc(Cl)c2c(=O)n1CCCS(C)(=O)=O` [Compound 111, (S)-2,4-diamino-6-((1-(5-chloro-3-(3-(methylsulfonyl)propyl)-4-oxo-3,4-dihydroquinazolin-2-yl)ethyl)amino)pyrimidine-5-carbonitrile] are 7.40, 8.52 and 6.28.
On the same counts, the results for `N#CCCn1c([C@@H](Nc2nc(N)nc(N)c2C#N)C2CC2)nc2cccc(Cl)c2c1=O` [Compound 112, (S)-2,4-diamino-6-(((5-chloro-3-(2-cyanoethyl)-4-oxo-3,4-dihydroquinazolin-2-yl)(cyclopropyl)methyl)amino)pyrimidine-5-carbonitrile] are 8.10, 8.52 and 7.21.

The term pIC50 denotes the IC50 on a negative log10 scale, so that one unit is a factor of ten. A higher pIC50 goes with a small IC50.
